In the NIST ThermoML archive (doi:10.1021/je900311v):
Numbers after ± are expanded uncertainties.

How the values were obtained:
[1] = 298.15 K; 101.33 kPa; Liquid
[2] = excess molar enthalpy (molar enthalpy of mixing); xn = mol fraction of the nth substance listed; details: 298.15 K, 101 kPa, Liquid, Calvet calorimetry

CCCCCC(=O)CC [3-octanone]
Details | mass density [kg/m3]
[1] | 817.77 ± 0.55

CCCCCC(=O)CC [3-octanone] + CCCCCCCCCCCC
[2]
Details | excess molar enthalpy [kcal/mol]
x1 = 0.0352 | 0.0408 ± 0.000645
x1 = 0.0679 | 0.0749 ± 0.00105
x1 = 0.0985 | 0.102 ± 0.00136
x1 = 0.1272 | 0.126 ± 0.00165
x1 = 0.1541 | 0.145 ± 0.00189
x1 = 0.1794 | 0.162 ± 0.00208
x1 = 0.2078 | 0.178 ± 0.00229
x1 = 0.2344 | 0.192 ± 0.00239
x1 = 0.2592 | 0.203 ± 0.00263
x1 = 0.2824 | 0.212 ± 0.00263
x1 = 0.3042 | 0.22 ± 0.00287
x1 = 0.3248 | 0.226 ± 0.00287
x1 = 0.3477 | 0.232 ± 0.00287
x1 = 0.3691 | 0.236 ± 0.00311
x1 = 0.3892 | 0.239 ± 0.00311
x1 = 0.408 | 0.242 ± 0.00311
x1 = 0.4257 | 0.243 ± 0.00311
x1 = 0.445 | 0.244 ± 0.00311
x1 = 0.4631 | 0.245 ± 0.00311
x1 = 0.48 | 0.245 ± 0.00311
x1 = 0.4959 | 0.245 ± 0.00311
x1 = 0.5109 | 0.244 ± 0.00311
x1 = 0.525 | 0.243 ± 0.00311
x1 = 0.5383 | 0.242 ± 0.00311
x1 = 0.5524 | 0.24 ± 0.00311
x1 = 0.5657 | 0.237 ± 0.00311
x1 = 0.5782 | 0.235 ± 0.00311
x1 = 0.5798 | 0.233 ± 0.00287
x1 = 0.59 | 0.233 ± 0.00287
x1 = 0.5925 | 0.231 ± 0.00287
x1 = 0.6057 | 0.229 ± 0.00287
x1 = 0.6194 | 0.226 ± 0.00287
x1 = 0.632 | 0.222 ± 0.00287
x1 = 0.6451 | 0.219 ± 0.00287
x1 = 0.6588 | 0.215 ± 0.00263
x1 = 0.673 | 0.21 ± 0.00263
x1 = 0.6855 | 0.207 ± 0.00263
x1 = 0.6985 | 0.201 ± 0.00263
x1 = 0.712 | 0.196 ± 0.00263
x1 = 0.726 | 0.19 ± 0.00239
x1 = 0.7405 | 0.183 ± 0.00234
x1 = 0.7557 | 0.176 ± 0.00227
x1 = 0.7693 | 0.17 ± 0.00217
x1 = 0.7833 | 0.162 ± 0.0021
x1 = 0.798 | 0.154 ± 0.00201
x1 = 0.8133 | 0.146 ± 0.00189
x1 = 0.8289 | 0.136 ± 0.00177
x1 = 0.8453 | 0.126 ± 0.00165
x1 = 0.8592 | 0.116 ± 0.00153
x1 = 0.8735 | 0.106 ± 0.00141
x1 = 0.8883 | 0.0958 ± 0.00129
x1 = 0.9036 | 0.0842 ± 0.00115
x1 = 0.9194 | 0.0717 ± 0.001
x1 = 0.9358 | 0.0585 ± 0.000837
x1 = 0.9511 | 0.0454 ± 0.000693
x1 = 0.9668 | 0.0313 ± 0.000526
x1 = 0.9831 | 0.0161 ± 0.000382

CCCCCC(=O)CC [3-octanone] + CCCCCCCCCCCCCC
[2]
Details | excess molar enthalpy [kcal/mol]
x1 = 0.0384 | 0.0466 ± 0.000717
x1 = 0.074 | 0.0845 ± 0.00115
x1 = 0.107 | 0.116 ± 0.00153
x1 = 0.1377 | 0.141 ± 0.00184
x1 = 0.1664 | 0.163 ± 0.0021
x1 = 0.1933 | 0.181 ± 0.00232
x1 = 0.2233 | 0.198 ± 0.00263
x1 = 0.2512 | 0.213 ± 0.00263
x1 = 0.2771 | 0.224 ± 0.00287
x1 = 0.3013 | 0.233 ± 0.00287
x1 = 0.324 | 0.241 ± 0.00311
x1 = 0.3452 | 0.247 ± 0.00311
x1 = 0.3687 | 0.252 ± 0.00311
x1 = 0.3907 | 0.257 ± 0.00335
x1 = 0.4111 | 0.26 ± 0.00335
x1 = 0.4303 | 0.262 ± 0.00335
x1 = 0.4482 | 0.263 ± 0.00335
x1 = 0.465 | 0.264 ± 0.00335
x1 = 0.4833 | 0.264 ± 0.00335
x1 = 0.5005 | 0.264 ± 0.00335
x1 = 0.5166 | 0.263 ± 0.00335
x1 = 0.5316 | 0.261 ± 0.00335
x1 = 0.5458 | 0.259 ± 0.00335
x1 = 0.5618 | 0.257 ± 0.00335
x1 = 0.5762 | 0.254 ± 0.00311
x1 = 0.5904 | 0.251 ± 0.00311
x1 = 0.6033 | 0.248 ± 0.00311
x1 = 0.6131 | 0.245 ± 0.00311
x1 = 0.6255 | 0.242 ± 0.00311
x1 = 0.6385 | 0.239 ± 0.00311
x1 = 0.6519 | 0.235 ± 0.00287
x1 = 0.666 | 0.23 ± 0.00287
x1 = 0.6781 | 0.226 ± 0.00287
x1 = 0.6906 | 0.221 ± 0.00287
x1 = 0.7037 | 0.216 ± 0.00263
x1 = 0.7172 | 0.21 ± 0.00263
x1 = 0.7313 | 0.204 ± 0.00263
x1 = 0.7459 | 0.197 ± 0.00263
x1 = 0.7586 | 0.19 ± 0.00239
x1 = 0.7716 | 0.183 ± 0.00234
x1 = 0.7852 | 0.176 ± 0.00225
x1 = 0.7992 | 0.167 ± 0.00215
x1 = 0.8138 | 0.158 ± 0.00206
x1 = 0.8288 | 0.149 ± 0.00194
x1 = 0.8419 | 0.14 ± 0.00182
x1 = 0.8555 | 0.13 ± 0.0017
x1 = 0.8694 | 0.12 ± 0.00158
x1 = 0.8838 | 0.109 ± 0.00143
x1 = 0.8988 | 0.0967 ± 0.00129
x1 = 0.9142 | 0.0835 ± 0.00115
x1 = 0.9552 | 0.0458 ± 0.000693
x1 = 0.9696 | 0.0313 ± 0.00055
x1 = 0.9846 | 0.0167 ± 0.000382

CCCCCC(=O)CC [3-octanone] + CCCCCCCCCCCCCCCC
[2]
Details | excess molar enthalpy [kcal/mol]
x1 = 0.0448 | 0.0548 ± 0.000813
x1 = 0.0857 | 0.0987 ± 0.00134
x1 = 0.1233 | 0.134 ± 0.00174
x1 = 0.1578 | 0.163 ± 0.0021
x1 = 0.1899 | 0.187 ± 0.00239
x1 = 0.2195 | 0.207 ± 0.00263
x1 = 0.2522 | 0.227 ± 0.00287
x1 = 0.2824 | 0.243 ± 0.00311
x1 = 0.3102 | 0.255 ± 0.00311
x1 = 0.336 | 0.265 ± 0.00335
x1 = 0.3599 | 0.273 ± 0.00335
x1 = 0.3822 | 0.279 ± 0.00359
x1 = 0.4079 | 0.284 ± 0.00359
x1 = 0.4316 | 0.288 ± 0.00359
x1 = 0.4534 | 0.29 ± 0.00359
x1 = 0.4737 | 0.292 ± 0.00359
x1 = 0.4956 | 0.292 ± 0.00359
x1 = 0.5158 | 0.291 ± 0.00359
x1 = 0.5345 | 0.29 ± 0.00359
x1 = 0.5517 | 0.288 ± 0.00359
x1 = 0.5677 | 0.286 ± 0.00359
x1 = 0.5827 | 0.283 ± 0.00359
x1 = 0.5995 | 0.279 ± 0.00359
x1 = 0.615 | 0.276 ± 0.00359
x1 = 0.6293 | 0.272 ± 0.00335
x1 = 0.6426 | 0.268 ± 0.00335
x1 = 0.655 | 0.264 ± 0.00335
x1 = 0.6775 | 0.253 ± 0.00311
x1 = 0.69 | 0.248 ± 0.00311
x1 = 0.7029 | 0.243 ± 0.00311
x1 = 0.7163 | 0.237 ± 0.00311
x1 = 0.7302 | 0.231 ± 0.00287
x1 = 0.7423 | 0.225 ± 0.00287
x1 = 0.7547 | 0.218 ± 0.00287
x1 = 0.7676 | 0.211 ± 0.00263
x1 = 0.7809 | 0.204 ± 0.00263
x1 = 0.7947 | 0.195 ± 0.00239
x1 = 0.809 | 0.186 ± 0.00239
x1 = 0.8216 | 0.177 ± 0.00227
x1 = 0.8347 | 0.168 ± 0.00215
x1 = 0.8482 | 0.157 ± 0.00203
x1 = 0.8621 | 0.146 ± 0.00189
x1 = 0.8741 | 0.136 ± 0.00177
x1 = 0.8865 | 0.125 ± 0.00165
x1 = 0.8993 | 0.113 ± 0.00151
x1 = 0.9124 | 0.1 ± 0.00134
x1 = 0.9259 | 0.0866 ± 0.0012
x1 = 0.9375 | 0.0746 ± 0.00105
x1 = 0.9494 | 0.0618 ± 0.000884
x1 = 0.9615 | 0.0478 ± 0.000741
x1 = 0.974 | 0.033 ± 0.000574
x1 = 0.9868 | 0.0169 ± 0.00043

CCCCCCCCCCCC [dodecane]
Details | mass density [kg/m3]
[1] | 745.28 ± 0.64

CCCCCCCCCCCCCCCC [hexadecane]
Details | mass density [kg/m3]
[1] | 770.31 ± 0.61

CCCCCCCCCCCCCC [tetradecane]
Details | mass density [kg/m3]
[1] | 760.2 ± 0.62
